Data taken from EP0314828A1, “4-Phenyl-1,2,3,4-tetrahydroisoquinolins as ulcer agents” (S O "PHARMACHIM", priority 1987, dated 1989).
Where two headings read alike, the source gives them in different places.

Tests used:
[1] = system: Wasser-Immersions-Streßgeschwüren; test: water-immersion stress ulcer model in rats, oral administration; type: in vivo, Ratten; set-up: Ulkusindex: scale not given here; conditions: for Prozent der Unterdrückung des Ulkusindexes / Ulkusindex / Prozentsatz der Unterdrückung des Ulkusindexes: rats
Description: Die Versuche werden mit 280 weißen männlichen Ratten - Wistar-Rasse - mit einem Gewicht von 150 bis 200 g nach der Takagi K., Ishii Y, Arzneim. Forsch. Drug.Res. 17, 1544 (1967) Methode durchgeführt und entsprechend modifiziert. Achtzehn Stunden vor dem Versuch werden die Tiere nicht gefüttert bei freiem Zugang zu Wasserquellen. Die Verbindungen der allgemeinen Formel I werden oral verabreicht; anschließend werden die Ratten, zur Verhinderung jeglicher Bewegung, auf dem Rücken an einer Unterlage angebunden, untereinander isoliert und in bis auf 17 - 18° C temperiertes Wasser getaucht. Fünf Stunden später wurden die Tiere getötet, ihre Mägen herausgenommen und makroskopische destruktive Änderungen festgestellt.
Die Prüfmethode ist dieselbe wie in Beispiel 1.

[2] = system: durch Reserpin hervorgerufenen Geschwüren; test: reserpine-induced ulcer model in rats; type: in vivo, Ratten; set-up: Ulkusindex: scale not given here; conditions: for Prozentsatz der Unterdrückung des Ulkusindexes / Ulkusindex: Table 6, rats; for Ulkusindex: Kontrolle 44,58
Protocol: Die Versuche werden mit 180 weißen, männlichen Ratten - Rasse Wistar - mit einem Gewicht von 180 bis 270 g durchgeführt. Die Tiere werden 48 Stunden nicht gefüttert bei freiem Zugang zu Wasserquellen. Die Geschwüre wurden hervorgerufen durch die Injektion von 5 mg/kg Reserpin. Eine halbe Stunde vor Einführung des Reserpins erhalten die Tiere peroral verschiedene Dosen von Ia, die Kontrolltiere Wasser, 24 Stunden nach Einführung des Reserpins werden die Tiere mit Thiopental getötet. Die destruktiven Magenveränderungen werden makroskopisch bestimmt. Es wurden Vergleichsuntersuchungen mit Cimetidin und Ranitidin (Tabelle 6) durchgeführt.

Geschwüren nach Shei = test: ulcer model according to Shei (ligature) in rats; type: in vivo, Ratten; conditions: Table 7, Kontrolle 16
Description: Die Versuche wurden mit weißen, männlichen Ratten, Rasse Wistar, mit einem Gewicht von 180 bis 270 g durchgeführt. Die Tiere werden 48 Stunden nicht gefüttert bei freiem Zugang zu Wasserquellen. 5 Stunden nach der Ligatur werden die Tiere getötet, die Mägen werden herausgenommen und die destruktiven Veränderungen makroskopisch untersucht. Als Vergleichspräparate wurden Cimetidin und Ranitidin angewandt (Tabelle 7). TABELLE 7

acute toxicity in mice = conditions: mouse, in vivo, Mäusen, read-out: LD₅₀
[3] = system: durch Indometacin hervorgerufenen Geschwüren; test: indometacin-induced ulcer model in rats; type: in vivo, Ratten
Protocol: Die Versuche werden mit 50 weißen, männlichen Ratten der Rasse Wistar mit einem Gewicht von 170 bis 200 g durchgeführt. Achtzehn Stunden vor dem Versuch werden die Tiere nicht gefüttert bei freiem Zugang zu Wasserquellen. Das Indometacin wird in einer Dosis von 35 mg/kg intraperitoneal eine halbe Stunde nach der peroralen Verabreichung der Verbindung Ia, eingeführt. In der fünften Stunde werden die Tiere getötet, die Mägen werden herausgenommen und es werden makroskopisch die destruktiven Veränderungen bestimmt. TABELLE 5

Streßgeschwüren = conditions: experimental models of stress ulcers in mice; M. Bickel, Arzn.Forsch. 30 (1), 69, 1980; cited from earlier work
sauere Magensekret = conditions: in contrast to Histamin-H₂-Antagonisten; M. Bickel, Arzn.Forsch. 30 (1), 69, 1980; cited from earlier work
[4] = Table 1, peroral, Dosis 1 mg/kg, 5 h immersion
[5] = Table 1, peroral, Dosis 1 mg/kg, 5 h immersion, Kontrolle 55,1

SMILES: CCOC(=O)Nc1cccc2c1CN(C)CC2c1ccccc1 (racemic) [If, /+/-2-Methyl-4-phenyl-8-ethoxycarbonylamino-1,2,3,4-tetrahydroisochinolin]
- Prozent der Unterdrückung des Ulkusindexes [1, 4]: 36,30 Prozent
- Ulkusindex [1, 5]: 35,10

SMILES: CNC(=C[N+](=O)[O-])NCCSCc1ccc(CN(C)C)o1 [Ranitidin, N-/5-Dimethylamino-methyl/-2-furanil-methyl-thioethyl-/N-methyl-2-nitro/-1,1-ethan-diamin, reference compound]
- Prozentsatz der Unterdrückung des Ulkusindexes ([2]; 30 mg/kg): 48,40 Prozent
- Ulkusindex ([2]; 30 mg/kg): 23,00
- Ulkusindex (Geschwüren nach Shei; rats, 30 mg/kg): 9
- Prozentsatz der Unterdrückung des Ulkusindexes ([1]; Table 4, peroral, 0,5 mg/kg): ~27 Prozent
- Ulkusindex ([1]; Table 4, peroral, 0,5 mg/kg, Kontrolle 44,3): 32,3
- Prozentsatz der Unterdrückung des Ulkusindexes ([1]; Table 4, peroral, 1 mg/kg): 39,27 Prozent
- Ulkusindex ([1]; Table 4, peroral, 1 mg/kg, Kontrolle 44,3): 26,9
- Prozentsatz der Unterdrückung des Ulkusindexes ([1]; Table 4, peroral, 3 mg/kg): 35,89 Prozent
- Ulkusindex ([1]; Table 4, peroral, 3 mg/kg, Kontrolle 44,3): 28,4
- Prozentsatz der Unterdrückung des Ulkusindexes ([1]; Table 4, peroral, 10 mg/kg): 48,98 Prozent
- Ulkusindex ([1]; Table 4, peroral, 10 mg/kg, Kontrolle 44,3): 22,6
- Prozentsatz der Unterdrückung des Ulkusindexes ([1]; Table 4, peroral, 30 mg/kg): 61,62 Prozent
- Ulkusindex ([1]; Table 4, peroral, 30 mg/kg, Kontrolle 44,3): 17,0

SMILES: CN1Cc2c(N)cccc2C(c2ccc(Cl)cc2)C1 (stereo not drawn) [Id, 2-Methyl-4-/4-chlorphenyl/-8-amino-1,2,3,4-tetrahydroisochinolin]
- Prozent der Unterdrückung des Ulkusindexes [1, 4]: 86,40 Prozent
- Ulkusindex [1, 5]: 7,50

SMILES: CCOC(=O)Nc1cccc2c1CN(C)CC2c1ccc(Cl)cc1.O=C(O)/C=C\C(=O)O (racemic) [Ib, /+/-2-Methyl-4-/4-chlorphenyl/8-ethoxycarbonylamino-1,2,3,4-tetrahydroisochinolin-saures Maleat]
- Ulkusindex [1, 5]: 7,00
- Aktivität im Vergleich mit /+/(Ib) ([1]; Table 1 data, 1 mg/kg peroral): vierfach niedrigere Aktivität

SMILES: CCOC(=O)Nc1cccc2c1CN(C)CC2c1ccccc1.O=C(O)/C=C\C(=O)O (stereo not drawn) [Ig, /-/-2-Methyl-4-phenyl-8-ethoxycarbonylamino-1,2,3,4-tetrahydroisochinolin-saures Maleat]
- Prozent der Unterdrückung des Ulkusindexes [1, 4]: 48,00 Prozent
- Ulkusindex [1, 5]: 28,60

SMILES: CCOC(=O)Nc1cccc2c1CN(C)CC2c1ccc(Cl)cc1 (racemic) [Ia, 2-Methyl-4-/4-Chlorphenyl/-8-Ethoxykarbonylamino-1,2,3,4-tetrahydroisochinolin]
- Prozentsatz der Unterdrückung des Ulkusindexes ([2]; peroral, 1 mg/kg): 47,2 Prozent
- Ulkusindex ([2]; peroral, 1 mg/kg): 23,5
- Prozentsatz der Unterdrückung des Ulkusindexes ([2]; peroral, 2 mg/kg): 57,37 Prozent
- Ulkusindex ([2]; peroral, 2 mg/kg): 19,00
- Prozentsatz der Unterdrückung des Ulkusindexes ([2]; peroral, 3 mg/kg): 41,00 Prozent
- Ulkusindex ([2]; peroral, 3 mg/kg): 26,00
- Prozentsatz der Unterdrückung des Ulkusindexes ([2]; peroral, 0,250 mg/kg): 6,9 Prozent
- Ulkusindex ([2]; peroral, 0,250 mg/kg, Reserpin 5 mg/kg): 41,5
- Prozentsatz der Unterdrückung des Ulkusindexes ([2]; peroral, 0,500 mg/kg): 17 Prozent
- Ulkusindex ([2]; peroral, 0,500 mg/kg): 37
- Prozentsatz der Unterdrückung des Ulkusindexes ([2]; peroral, 1,5 mg/kg): 52,15 Prozent
- Ulkusindex ([2]; peroral, 1,5 mg/kg): 21,33
- Ulkuseffekt gegenüber Vergleichspräparaten Cimetidin und Ranitidin ([2]; maximal effect of Ia at 1,5 and 2 mg/kg vs Cimetidin 100 mg/kg and Ranitidin 30 mg/kg): mehrfach höher
- LD50 (acute toxicity in mice; ip, intraperitoneal): 125 mg/kg
- LD50 (acute toxicity in mice; oral): 250 mg/kg
- Prozentsatz der Unterdrückung des Ulkusindexes ([3]; Table 5, peroral, 0,050 mg/kg): 37 Prozent
- Ulkusindex ([3]; Table 5, peroral, 0,050 mg/kg, Indometacin 35 mg/kg i.p., Kontrolle 19,5): 12,2
- Prozentsatz der Unterdrückung des Ulkusindexes ([3]; Table 5, peroral, 0,250 mg/kg): 40,6 Prozent
- Ulkusindex ([3]; Table 5, peroral, 0,250 mg/kg, Kontrolle 19,5): 10,4
- Prozentsatz der Unterdrückung des Ulkusindexes ([3]; Table 5, peroral, 0,500 mg/kg): 52 Prozent
- Ulkusindex ([3]; Table 5, peroral, 0,500 mg/kg, Kontrolle 19,5): 9,3
- Prozentsatz der Unterdrückung des Ulkusindexes ([3]; Table 5, peroral, 1,100 mg/kg): 78 Prozent
- Ulkusindex ([3]; Table 5, peroral, 1,100 mg/kg, Kontrolle 19,5): 4,2
- Unterdrückungsprozentsatz ([3]; peroral, minimal dose printed as 0,1 mg/kg): 37
- Ulkusindex ([3]; peroral, minimal dose printed as 0,1 mg/kg, Kontrolltiere 19,5): 12,2
- Ulkusindex (Geschwüren nach Shei; rats, 0,100 mg/kg, 5 h after ligature): 22
- Ulkusindex (Geschwüren nach Shei; rats, 0,500 mg/kg): 13
- Ulkusindex (Geschwüren nach Shei; rats, 1,5 mg/kg): 7,13
- Ulkusindex (Geschwüren nach Shei; rats, 1,000 mg/kg): 8,25
- Prozent der Unterdrückung des Ulkusindexes [1, 4]: 92,1 Prozent
- Ulkusindex [1, 5]: 4,33
- Prozent der Unterdrückung des Ulkusindexes ([1]; Table 3, oral, 0,100 mg/kg): 46 Prozent
- Ulkusindex ([1]; Table 3, oral, 0,100 mg/kg, Kontrolle 76.6): 41,3
- Prozent der Unterdrückung des Ulkusindexes ([1]; Table 3, oral, 0,250 mg/kg): 57,3 Prozent
- Ulkusindex ([1]; Table 3, oral, 0,250 mg/kg, Kontrolle 76.6): 32,7
- Prozent der Unterdrückung des Ulkusindexes ([1]; Table 3, oral, 0,500 mg/kg): 75,5 Prozent
- Ulkusindex ([1]; Table 3, oral, 0,500 mg/kg, Kontrolle 76.6): 18,8
- Prozent der Unterdrückung des Ulkusindexes ([1]; Table 3, oral, 1,000 mg/kg): 85,00 Prozent
- Ulkusindex ([1]; Table 3, oral, 1,000 mg/kg, Kontrolle 76.6): 11,3
- höhere Ulkusaktivität im Vergleich zu Ranitidin ([1]; ratio of doses for maximal suppression: Ia 1 mg/kg vs Ranitidin 30 mg/kg (Tables 3 and 4)): 30 fach

SMILES: CCOC(=O)Nc1cccc2c1CN(C)CC2c1ccc(Cl)cc1.O=C(O)/C=C\C(=O)O (stereo not drawn) [Ic, /-/-2-Methyl-4-/4-chlorphenyl/8-ethoxycarbonylamino-1,2,3,4-tetrahydroisochinolin-saures Maleat]
- Prozent der Unterdrückung des Ulkusindexes [1, 4]: 28,20 Prozent
- Ulkusindex [1, 5]: 39,58

SMILES: CCOC(=O)Nc1cccc2c1CN(C)CC2c1ccccc1 (racemic) [Ie, 2-Methyl-4-phenyl-8-ethoxycarbonylamino-1,2,3,4-tetrahydroisochinolin]
- Prozent der Unterdrückung des Ulkusindexes [1, 4]: 40,60 Prozent
- Ulkusindex [1, 5]: 32,70

SMILES: CNC(=NCCSCc1nc[nH]c1C)NC#N [Cimetidin, N-Cyan-N-methyl-N-2/ 4-methyl-imidazolin/methylthio-ethylguanidinium, reference compound]
- Prozentsatz der Unterdrückung des Ulkusindexes ([2]; 100 mg/kg): 38,00 Prozent
- Ulkusindex ([2]; 100 mg/kg): 27,62
- Ulkusindex (Geschwüren nach Shei; rats, 100 mg/kg): 12,2

SMILES: CN1Cc2c(N)cccc2C(c2ccccc2)C1.O=C(O)/C=C\C(=O)O (stereo not drawn) [Alival, 2-Methyl-4-phenyl-8-amino-1,2,3,4-tetrahydroisochinolin-saueres-Maleat]
- Antigeschwüreffekt (Streßgeschwüren): einen Antigeschwüreffekt aufweist
- Inhibierung des saueren Magensekrets (sauere Magensekret): nicht inhibiert

SMILES: CN1Cc2c(Cl)cccc2C(c2ccccc2)C1 (stereo not drawn) [Ih, 2-Methyl-4-phenyl-8-chlor-1,2,3,4-tetrahydroisochinolin]
- Prozent der Unterdrückung des Ulkusindexes [1, 4]: 36,60 Prozent
- Ulkusindex [1, 5]: 34,90
